Reference: US10852302B2, “Method for evaluation of function of phagocyte” (MOCHIDA PHARMACEUTICAL CO., LTD., priority 2008, dated 2020)

Columns and labels:
Assay type in all cases: cell-based
[1] = tested on: granulocyte from the rabbit peritoneal cavity; test: sCD14-ST production by rabbit peritoneal granulocyte stimulated with leukocyte stimulants; details: rabbit granulocyte 1×10^7 cells/mL, stimulant, 37° C. for 2 hours, supernatant, sandwich ELISA (FIG. 4)
Description: (§1) Two step sandwich ELISA system was constructed by using the F1301-9-1 antibody produced in Example 1-(4) for the solid phase antibody, and the F1258-7-2 Fab′-HRP antibody prepared in Example 3-(1) for the labeling antibody. More specifically, the F1301-9-1 antibody was diluted with D-PBS (pH 7.4) to 10 μg/mL, and added to the wells of immunoplate (Maxisorb, Nunc) at 50 μL/well. After allowing the reaction to proceed overnight at 4° C., the well was washed 5 times with ion exchanged water. D-PBS (pH 7.4) containing 5% StabilGuard (SurModics) and 0.1% Tween 20 was added to the wells at 200 μL/well for blocking. Next, the specimen was diluted by using 150 mM phosphate buffer (pH 6.0) containing 5% normal rabbit serum (serum from which soluble CD14 antigen has been removed by using the rabbit CD14 affinity antibody column), 1% BSA, and 0.1% Tween 20 for dilution, and the diluted specimen was added to the well at 50 μL/well and allowed to react at 25° C. for 3 hours. […] The reaction was ceased with 0.5M sulfuric acid solution, and absorbance at 450 nm was measured by using a plate spectrophotometer (NJ-2100, Intermed Japan). […]
Various leukocyte stimulants were added to the granulocyte to evaluate the amount of sCD14-ST produced. […] After incubating at 37° C. for 2 hours, the supernatant was collected by centrifugation and sCD14-ST was measured by the assay system of Example 3-(2).

[2] = tested on: granulocyte from the rabbit peritoneal cavity; test: High molecular weight sCD14 production by rabbit granulocyte stimulated with leukocyte stimulants; details: stimulant, kit for high molecular weight sCD14 (R&D) (FIG. 5)
[3] = tested on: granulocyte from rabbit peritoneal cavity; test: Action of phagocytosis inhibitors on sCD14-ST production by rabbit granulocyte stimulated with E. coli; details: inhibitor preincubated 37° C. 30 minutes, then 20 times by cell count of E. coli, 2 hours (FIG. 6)
Description: as §1, with “hours. After completion of the reaction, the well was washed 5 times with physiological saline containing 0.05% Tween 20. The F1258-7-2 Fab′-HRP was diluted with 75 mM phosphate buffer (pH 6.4) containing 4% rat serum and 0.05% Tween 20, and added to the well at 50 μL/well.” for “hours.”

[4] = tested on: human peripheral blood granulocyte; test: Action of phagocytosis inhibitors on sCD14-ST production by human granulocyte stimulated with E. coli; details: inhibitor preincubated 37° C. 1 hour, then 30 times by cell count of E. coli, 2 hours (FIG. 9)
Description: Granulocyte fraction was prepared from peripheral blood collected from a healthy human donor by density-gradient centrifugation using two layers each having a specific gravity of d=1.077 and d=1.119.
Various leukocyte stimulants were added to the granulocyte to evaluate the amount of sCD14-ST produced. More specifically, human peripheral blood granulocyte collected in Example 7-(1) was suspended in RPMI1640 culture containing 10% healthy human serum, 2 mM Glutamin, 10 mM HEPES, and 10 ng/ml G-CSF (SIGMA R8758) to a cell concentration of 0.5×10^7 cells/mL, and added to the wells of a 96 well culture plate (Nunclon Surface, Nunc) at 100 μL/well. The granulocyte was incubated overnight at 37° C. in the presence of 5% carbon dioxide. Next, various stimulants were adjusted to 1.5 fold concentration with HBSS buffer containing 10% healthy human serum, 2 mM Glutamin, and 10 mM HEPES, and added to the well at 200 μL/well. After incubating at 37° C. for 2 hours, the supernatant was collected by centrifugation, and human sCD14-ST was measured by using the assay kit described in Example 7-(3) of WO 2005/108429. More specifically, the sandwich assay kit used was the one containing the antibody which binds to the peptide consisting the amino acid sequence of 53rd to 68th amino acid residue of the human CD14 (S68 antibody), which specifically recognizes the human sCD14-ST. […]

SMILES	sCD14-ST production [1]	production of the high molecular weight sCD14 [2]	Production of the rabbit sCD14-ST (effect of inhibitor) [3]	sCD14-ST production (effect of inhibitor) [4]
CSCC[C@H](NC=O)C(=O)N[C@@H](CC(C)C)C(=O)N[C@@H](Cc1ccccc1)C(=O)O [fMLP, formyl methionyl leucyl phenylalanine]	increase in the sCD14-ST was not recognized			
CCCCCCCCCCCCCC(=O)O[C@@H]1[C@@H](C)[C@@]2(O)[C@@H](C=C(CO)C[C@]3(O)C(=O)C(C)=C[C@@H]23)[C@@H]2C(C)(C)[C@]12OC(C)=O [PMA, phorbol myristate acetate]	increase in the sCD14-ST was not recognized	increase in the production of the high molecular weight sCD14 was recognized		
C=C1[C@@H](C)[C@H]2[C@H](Cc3ccccc3)NC(=O)[C@]23[C@H](OC(C)=O)/C=C/[C@@](C)(O)C(=O)[C@@H](C)C/C=C/[C@H]3[C@@H]1O [Cytochalasin D]			inhibited	inhibited the sCD14-ST production
COC[C@H]1OC(=O)c2coc3c2[C@@]1(C)C1=C(C3=O)[C@@H]2CCC(=O)[C@@]2(C)C[C@H]1OC(C)=O [Wortomanin]			inhibited	inhibited the sCD14-ST production
